Where only a bound is given, the exact number is not on record here.

The term CLint scaled denotes a measure of how fast metabolising enzymes remove a compound, apart from limits set by blood flow. For orientation: half-life means the time needed for the level to fall by half in the phase considered.

Data set [1] has as its system BaF3-EGFR^L858R/C797S cells. As to the kind of experiment: BaF3 cell proliferation inhibition experiment (CCK-8). The format is cell-based. The note with it: Ba/F3 EGFR-L858R, 72 h, read-out: BaF3-EGFR^L858R/C797S (IC50 nM).
The subject of data set [2] is BaF3-EGFR^del19/C797S cells. The description is as above. The format is cell-based. The note with it: Mus musculus, BaF3, 72 h, read-out: BaF3-EGFR^del19 /C797S (IC50 nM).
A further data set addresses Aurora B (Homo sapiens (Human), UniProt Q96GD4). As to the kind of experiment: Activity of other kinases: Aurora B (HTRF). The format is biochemical. As to the method:
Embodiment 5 Activity of Other Kinases
(1) Preparation of 1×kinase reaction buffer:
1 time the volume of 5×kinase reaction buffer and 4 times the volume of water; 5 mM MgCl2; 1 mM DTT.
(2) Screening of Compounds:
a) The compound was diluted with DMSO in a dilution plate.
b) The compound was diluted 40 times into the 1× kinase reaction buffer and oscillated on an oscillator for 20 minutes.
c) 2× was prepared using a 1× enzyme reaction buffer.
d) 2 μL of kinase was added to each well of the reaction plate.
e) 1 μL of the compound diluted in the buffer was added to each well, and the plate was sealed with a sealing film, centrifuged at 1000 rpm for 60 seconds and incubated at 25° C. for 10 minutes.
f) A mixture of 2.5×S2 &TK-substrate-biotin and ATP was prepared using the 1× enzyme reaction buffer, and 2 μL of the S2 &TK-substrate-biotin/ATP mixture was added to the reaction plate.
G) The plate was sealed with a sealing film, centrifuged at 1000 rpm for 60 seconds and incubated at 25° C. for 50&40&30&20 minutes.
h) 4× Sa-XL 665 was prepared using an HTRF detection buffer.
i) 5 μL of Sa-XL 665 and 5 μL of STK/TK-antibody-Cryptate were added to each well, centrifugation was conducted at 1000 rpm for 60 seconds, and incubation was conducted at 25° C. for 1 hour.
j) The fluorescence signals at 615 nm (Cryptate) and 665 nm (XL665) were read using the BGM microplate reader.
(Time-resolved FRET reads energy transfer from a long-lived donor to a nearby acceptor.)

A short description of data set [3]: Stability testing of liver microsomes, human. The format is in vitro ADME. The note with it: for CLint scaled at 1 µM / half-life at 1 µM: pH 7.41, human liver microsomes. How it is done: (§1) 1. 100 mM K-buffer was preheated with 5 mM MgCl2 with a pH value of 7.41.
(§2) 2. Preparation of testing solution
(§3) 0.5 mM solution A: 5 μL of the 10 mM compound stock solution was added for reference to 95 μL of ACN.
(§4) 1.5 μM microsome solution (0.75 mg/mL): 1.5 μL of a 500 μM solution and 18.75 μL of 20 mg/mL liver microsomes were added to 479.75 μL of K/Mg-buffer.
(§5) 3. The K/Mg-buffer NADPH solution (6 mM, 5 mg/mL) was prepared.
(§6) 4. […] of human, monkey, and mouse liver microsomes with a 0.75 mg/mL concentration were added to detection plates at different time points (0, 15, 30, 45, and 60 minutes).
(§7) 5. Pre-incubation was conducted at 37° C. for 5 minutes.
(§8) 6. At 0 min, before 15 μL of the NADPH stock solution (6 mM) was added, 150 μL of ACN containing IS was added.
(§9) NADPH was dissolved in the K/mg buffer to prepare a 6 mm and 5 mg/mL NADPH stock solution.
(§10) 7. At other time points, 15 μL of the NADPH stock solution (6 mM) was added to the well for starting the reaction and timing.
(§11) 8. 150 μL of ACN containing IS was added to the corresponding plate wells at 15 min, 30 min, 45 min, and 60 min, respectively, and the reaction was stopped.
(§12) 9. After quenching, shaking well was conducted for 10 minutes (600 rpm), and centrifugation was conducted at 6000 rpm for 15 minutes.
(§13) 10. 80 μL of the supernatant in each well was transferred to a 96-well sample plate (containing 140 μL of pure water) for LC/MS analysis.
Background: Microsomes from liver hold many membrane-bound enzymes, among them those of drug oxidation.

Data set [4] in a line: Stability testing of liver microsomes, monkey. The format is in vitro ADME. The note with it: for CLint scaled at 1 µM / half-life at 1 µM: pH 7.41, monkey liver microsomes. As to the method: as §1, §2, §3, §4, §5, §6, §7, §8, §9, §10, §11, §12, §13
Data set [5] in a line: Stability testing of liver microsomes, mouse. The format is in vitro ADME. The note with it: for CLint scaled at 1 µM / half-life at 1 µM: pH 7.41, mouse liver microsomes. How it is done:
as §1, §2, §3, §4, §5, §6, §7, §8, §9, §10, §11, §12, §13

Sequence of Aurora B (Q96GD4 whole entry): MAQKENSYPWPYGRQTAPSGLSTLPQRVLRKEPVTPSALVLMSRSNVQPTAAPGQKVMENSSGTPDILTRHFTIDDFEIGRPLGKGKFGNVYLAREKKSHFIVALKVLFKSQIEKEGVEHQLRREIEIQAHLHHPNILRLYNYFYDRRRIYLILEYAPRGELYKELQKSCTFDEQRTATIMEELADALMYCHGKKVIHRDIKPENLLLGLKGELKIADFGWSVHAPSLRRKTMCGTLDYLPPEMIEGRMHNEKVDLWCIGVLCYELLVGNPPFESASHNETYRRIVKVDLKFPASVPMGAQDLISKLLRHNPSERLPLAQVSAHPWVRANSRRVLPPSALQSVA

As to `CCc1cc(Nc2ncc(Cl)c(Nc3ccc(C)c(C)c3P(C)(C)=O)n2)c(OC)cc1N1CCC(N2C[C@H]3CC[C@@H](C2)N3C)CC1` [Compound 51, (6-((5-chloro-2-((5-ethyl-2-methoxy-4-(4-((1R,5S)-8-methyl-3,8-diazabicyclo[3.2.1]octan-3-yl)piperidin-1-yl)phenyl)amino)pyrimidin-4-yl)amino)-2,3-dimethylphenyl)dimethylphosphine oxide], the results for the IC50 in data set [1] and in data set [2] were 116 nM and 146 nM, respectively.
For `CCc1cc(Nc2ncc(Cl)c(Nc3ccc(C)c(C)c3P(C)(C)=O)n2)c(OC)cc1N1CC2(CCN(C)CC2)C1` [Compound 24, (6-((5-Chloro-2-((5-ethyl-2-methoxy-4-(7-methyl-2,7-diazaspiro[3.5]non-2-yl)phenyl)amino)pyrimidin-4-yl)amino)-2,3-dimethylphenyl)dimethylphosphine oxide], the IC50 in data set [1] worked out at 158 nM; in data set [2], 202 nM; against Aurora B, 410 nM. Also, the “stability in liver microsomes (in words)” value in data set [3] (humans), in data set [4] (monkeys) and in data set [5] (mice) was “good stability” each time. The CLint scaled at 1 µM in data set [3] is below 9.6 mL/min/kg; in data set [4], 27.7 mL/min/kg; in data set [5] it was below 9.6 mL/min/kg. Besides, the half-life at 1 µM in data set [3] is above 145 min; in data set [4], 50 min; in data set [5], above 145 min.
With `CCc1cc(Nc2ncc(Cl)c(Nc3ccc(C)c(C)c3P(C)(C)=O)n2)c(OC)cc1N1CCC(N2CCN(C)CC2)CC1` [Comparative Compound A, reference compound], the IC50 on Aurora B turned out to be 2010 nM. In addition, the values for the CLint scaled at 1 µM in data set [3], in data set [4] and in data set [5] were 49.8 mL/min/kg, 52 mL/min/kg and 18.2 mL/min/kg, respectively. For the same compound, the figures for the half-life at 1 µM in data set [3], in data set [4] and in data set [5] were 27.8 min, 26.7 min and 76.1 min, respectively.
